In patent US8822449B2, “Substituted aminoindanes and analogs thereof, and the pharmaceutical use thereof” (Sanofi, priority 2008, dated 2014) one finds IC50 and inhibition data, which are given here for 29 compounds.

This test has as its target T1, sodium-proton exchanger of subtype 3 (NHE3) (Homo sapiens, UniProt P48764).
T1 construct: expressed in transfected cells
T1 sequence (P48764 26-834): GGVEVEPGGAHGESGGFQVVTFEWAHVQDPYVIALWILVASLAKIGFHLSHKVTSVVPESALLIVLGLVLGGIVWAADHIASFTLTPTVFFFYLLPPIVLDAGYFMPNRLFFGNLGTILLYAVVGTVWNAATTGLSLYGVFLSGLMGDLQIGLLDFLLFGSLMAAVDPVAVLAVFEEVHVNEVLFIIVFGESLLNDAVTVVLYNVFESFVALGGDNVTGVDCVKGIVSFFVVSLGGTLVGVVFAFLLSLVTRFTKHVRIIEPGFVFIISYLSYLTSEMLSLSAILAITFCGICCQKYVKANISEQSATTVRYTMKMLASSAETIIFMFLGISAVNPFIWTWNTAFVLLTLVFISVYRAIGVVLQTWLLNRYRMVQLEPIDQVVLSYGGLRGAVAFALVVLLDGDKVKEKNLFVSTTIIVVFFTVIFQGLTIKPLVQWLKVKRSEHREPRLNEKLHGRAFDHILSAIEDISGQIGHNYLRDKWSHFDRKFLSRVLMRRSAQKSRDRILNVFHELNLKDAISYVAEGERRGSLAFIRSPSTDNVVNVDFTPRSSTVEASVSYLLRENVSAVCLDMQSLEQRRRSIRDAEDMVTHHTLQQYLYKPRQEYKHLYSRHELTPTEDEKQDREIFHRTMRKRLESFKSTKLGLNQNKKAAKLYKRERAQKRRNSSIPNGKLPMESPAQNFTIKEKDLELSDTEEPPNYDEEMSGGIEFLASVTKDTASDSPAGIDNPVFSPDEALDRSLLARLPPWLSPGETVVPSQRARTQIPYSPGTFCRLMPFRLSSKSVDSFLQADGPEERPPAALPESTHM
Nature of the test: Recovery of intracellular pH (pHi) after acidification in LAP1 cells stably expressing NHE3 (BCECF fluorescence, FLIPR). Type of test: cell-based.

[1] abbreviates: LAP1 cells stably expressing NHE3, pH recovery after acidification, range 1 is % inhibition at 10 μM, read-out: Activity range (inhibitory effect on NHE3).

The structures appear in SMILES notation. Like-named read-outs stand apart in the source and are kept apart here.

`CS(=O)(=O)c1ccc(O[C@H]2c3cc(Cl)cc(Cl)c3C[C@@H]2N2CCC[C@@H](NCCC(F)(F)F)C2)cc1` [Example 223, {(R)-1-[trans-(1S,2S)-4,6-dichloro-1-(4-methanesulfonylphenoxy)indan-2-yl]piperidin-3-yl}-(3,3,3-trifluoropropyl)amine]: the IC50 under setting [1] is under 1000 nM.

For the compound `NS(=O)(=O)c1ccc(OC2c3ccccc3CC2N2CC[C@@H](N3CCCC3)C2)cc1` (mixture of isomers) [Example 463, 4-(rac-trans-(1,2)-(R)-2-[1,3′]Bipyrrolidinyl-1′-ylindan-1-yloxy)benzenesulfonamide], the IC50 under setting [1] lay in the range of 1000 to 10000 nM.

Regarding `N[C@H]1CCCN([C@H]2CCc3ccccc3[C@@H]2Oc2cccc3[nH]nnc23)C1` (racemic) [Example 147, (S)-1-[rac-trans-(1,2)-1-(1H-benzotriazol-4-yloxy)-1,2,3,4-tetrahydronaphthalen-2-yl]piperidin-3-ylamine], under setting [1], the IC50 is under 1000 nM.

As for `NC1CCN([C@@H]2Cc3ccccc3[C@H]2Oc2ccc(NC(=O)OCc3ccccc3)cc2)C1` (mixture of isomers) [Example 241, {4-[rac-trans-(1,2)-2-(3-aminopyrrolidin-1-yl)indan-1-yloxy]phenyl}carbamic acid benzyl ester], the IC50 under setting [1] lay in the range of 1000 to 10000 nM.

In the case of `Cc1nnc(C)n1-c1ccc(O[C@H]2c3cc(Cl)cc(Cl)c3C[C@@H]2N2CCCC2)c(F)c1` [Example 499, 4-[4-(trans-(1S,2S)-4,6-dichloro-2-pyrrolidin-1-ylindan-1-yloxy)-3-fluorophenyl]-3,5-dimethyl-4H-[1,2,4]triazole], under setting [1], the IC50 was under 1000 nM.

For the compound `O[C@@H]1CCN([C@H]2Cc3c(Cl)cc(Cl)cc3[C@@H]2Oc2ccc(F)cc2-c2ccn[nH]2)C1` [Example 137, (R)-1-{trans-(1S,2S)-4,6-dichloro-1-[4-fluoro-2-(2H-pyrazol-3-yl)phenoxy]indan-2-yl}pyrrolidin-3-ol], the inhibition at 10 µM under setting [1] is 20 to 50%.

As to `CS(=O)(=O)c1ccc(O[C@H]2c3c(Cl)sc(Cl)c3CC[C@@H]2N2CCCC2)cc1` (racemic) [Example 253, 1-[1,3-dichloro-4-(4-methanesulfonylphenoxy)-4,5,6,7-tetrahydrobenzo[c]thiophen-5-yl]pyrrolidine], the inhibition at 10 µM (LAP1, read-out: Activity range (inhibitory effect on NHE3)) lay within 20 to 50%.

Consider `N[C@H]1CCCN([C@H]2CCc3ccccc3[C@@H]2Oc2cccc(OC(F)F)c2)C1` (racemic) [Example 166, (S)-1-[rac-trans-(1,2)-1-(3-difluoromethoxyphenoxy)-1,2,3,4-tetrahydronaphthalen-2-yl]piperidin-3-ylamine], for which the inhibition at 10 µM under setting [1] lay in the range of 20 to 50%.

In the case of `CC(=O)Nc1cccc(OC2c3ccccc3CC2N2CCCC2)c1` (racemic) [Example 641, N-[3-(rac-trans-(1,2)-2-pyrrolidin-1-ylindan-1-yloxy)phenyl]acetamide], under setting [1], the IC50 is under 1000 nM.

Turning to `CS(=O)(=O)c1ccc(O[C@H]2c3ccccc3C[C@@H]2N2CCn3cnnc3C2)cc1` (racemic) [Example 590, 7-[rac-trans-(1,2)-1-(4-methanesulfonylphenoxy)indan-2-yl]-5,6,7,8-tetrahydro-[1,2,4]triazolo[4,3-a]pyrazine], the inhibition at 10 µM under setting [1] fell in the range of 20 to 50%.

With `NCC1CCN([C@@H]2Cc3ccccc3[C@H]2Oc2ccc(F)cc2F)C1` (mixture of isomers) [Example 602, C-{1-[rac-trans-(1,2)-1-(2,4-difluorophenoxy)indan-2-yl]pyrrolidin-3-yl}methylamine], under setting [1], the IC50 lay within 1000 to 10000 nM.

For `N#Cc1ccc(O[C@@H]2c3ccccc3C[C@H]2N2CCC[C@@H](N)C2)cc1F` (racemic) [Example 522, 4-[rac-trans-(1,2)-2-((R)-3-aminopiperidin-1-yl)indan-1-yloxy]-2-fluorobenzonitrile], the IC50 under setting [1] lay in the range of 1000 to 10000 nM.

Turning to `CS(=O)(=O)c1ccc(O[C@H]2c3c(ccc(Cl)c3Cl)C[C@@H]2N2CCCNCC2)cc1` (racemic) [Example 288, 1-[rac-trans-(1,2)-6,7-dichloro-1-(4-methanesulfonylphenoxy)indan-2-yl]-[1,4]diazepane], under setting [1], the IC50 was under 1000 nM.

`CC(=O)NCc1cccc(O[C@H]2c3ccccc3C[C@@H]2N2CCCC2)c1` (racemic) [Example 640, N-[3-(rac-trans-(1,2)-2-pyrrolidin-1-ylindan-1-yloxy)benzyl]acetamide]: the IC50 under setting [1] was under 1000 nM.

For the compound `N[C@@H]1CCCN([C@H]2Cc3c(Cl)cc(Cl)cc3[C@@H]2Oc2ccc(-n3cncn3)cc2)C1` [Example 97, (R)-1-[trans-(1S,2S)-4,6-dichloro-1-(4-[1,2,4]triazol-1-ylphenoxy)indan-2-yl]piperidin-3-ylamine], the IC50 under setting [1] was under 1000 nM.

Consider `O=C1OCCN1c1cccc(O[C@H]2c3cc(Cl)cc(Cl)c3C[C@@H]2N2CC[C@@H](O)C2)c1` [Example 419, 3-{3-[(1S,2S)-4,6-dichloro-2-((R)-3-hydroxypyrrolidin-1-yl)indan-1-yloxy]phenyl}oxazolidin-2-one], for which the IC50 under setting [1] lay within 1000 to 10000 nM.

For the compound `N[C@@H]1CCCN([C@@H]2Cc3ccccc3[C@H]2Oc2ccc(NC(=O)OCc3ccccc3)cc2)C1` (racemic) [Example 238, {4-[rac-trans-(1,2)-2-((R)-3-aminopiperidin-1-yl)indan-1-yloxy]phenyl}carbamic acid benzyl ester], the IC50 under setting [1] lay in the range of 1000 to 10000 nM.

For the compound `O=C1COC(=O)N1c1ccc(O[C@H]2c3cc(Cl)cc(Cl)c3C[C@@H]2N2CC[C@@H](O)C2)c(Cl)c1` [Example 424, 3-{3-chloro-4-[(1S,2S)-4,6-dichloro-2-((R)-3-hydroxypyrrolidin-1-yl)indan-1-yloxy]phenyl}oxazolidine-2,4-dione], the IC50 under setting [1] was under 1000 nM.

In the case of `Brc1ccc(O[C@@H]2c3ccccc3C[C@H]2N2C[C@H]3CNC[C@H]3C2)c(-c2cc[nH]n2)c1` (racemic) [Example 20, 2-{rac-trans-(1,2)-1-[4-bromo-2-(1H-pyrazol-3-yl)phenoxy]indan-2-yl}octahydropyrrolo[3,4-c]pyrrole], the IC50 under setting [1] lay in the range of 1000 to 10000 nM.

As to `COc1cc(O[C@H]2c3ccccc3CC[C@@H]2N2CCC[C@H](N)C2)ccc1Br` (racemic) [Example 173, (S)-1-[rac-trans-(1,2)-1-(4-bromo-3-methoxyphenoxy)-1,2,3,4-tetrahydronaphthalen-2-yl]piperidin-3-ylamine], under setting [1], the inhibition at 10 µM lay in the range of 20 to 50%.

`CS(=O)(=O)c1ccc(O[C@H]2c3cc(Cl)cc(Cl)c3C[C@@H]2N2CC[C@@H](O)C2)cc1` [Example 103, (R)-1-[trans-(1S,2S)-4,6-dichloro-1-(4-methanesulfonylphenoxy)indan-2-yl]pyrrolidin-3-ol]: the IC50 under setting [1] is under 1000 nM.

Turning to `CCc1nc(C)cn1-c1ccc(O[C@H]2c3cc(Cl)cc(F)c3C[C@@H]2N2CC[C@@H](O)C2)cc1` [Example 719, (R)-1-{trans-(1S,2S)-6-Chloro-1-[4-(2-ethyl-4-methyl-imidazol-1-yl)-phenoxy]-4-fluoro-indan-2-yl}-pyrrolidin-3-ol], the IC50 under setting [1] lay within 1000 to 10000 nM.

Turning to `N[C@@H]1CCCN([C@H]2CCc3ccccc3[C@@H]2Oc2ccc(Cl)cc2-c2cc[nH]n2)C1` (racemic) [Example 119, (R)-1-{rac-trans-(1,2)-1-[4-chloro-2-(1H-pyrazol-3-yl)phenoxy]-1,2,3,4-tetrahydronaphthalen-2-yl}piperidin-3-ylamine], the IC50 under setting [1] was under 1000 nM.

For the compound `CC(=O)Nc1cccc(O[C@@H]2c3ccccc3C[C@H]2N2CCC[C@H](N)C2)c1` (racemic) [Example 685, N-{3-[rac-trans-(1,2)-2-((S)-3-aminopiperidin-1-yl)indan-1-yloxy]phenyl}acetamide], the IC50 under setting [1] fell in the range of 1000 to 10000 nM.

As to `CC(=O)Nc1cccc(OC2c3ccccc3CC2N2CC[C@@H](O)C2)c1` (mixture of isomers) [Example 681, N-{3-[rac-trans-(1,2)-2-((R)-3-hydroxypyrrolidin-1-yl)indan-1-yloxy]phenyl}acetamide], the IC50 under setting [1] lay in the range of 1000 to 10000 nM.

Regarding `N#Cc1ccc(O[C@@H]2c3ccccc3C[C@H]2N2C[C@H]3CNC[C@H]3C2)cc1F` (racemic) [Example 397, 2-fluoro-4-[rac-trans-(1,2)-2-(hexahydropyrrolo[3,4-c]pyrrol-2-yl)indan-1-yloxy]benzonitrile], under setting [1], the IC50 lay within 1000 to 10000 nM.

Regarding `Cc1nnc(C)n1-c1ccc(O[C@H]2c3cc(Cl)cc(Cl)c3C[C@@H]2N2CC[C@@H](O)C2)c(Cl)c1` [Example 122, (R)-1-{trans-(1S,2S)-4,6-dichloro-1-[2-chloro-4-(3,5-dimethyl-[1,2,4]triazol-4-yl)phenoxy]indan-2-yl}pyrrolidin-3-ol], the IC50 under setting [1] was under 1000 nM.

Regarding `O=C1CCCN1c1ccc(Cl)c(O[C@H]2c3cc(Cl)cc(F)c3C[C@@H]2N2CC[C@@H](O)C2)c1` [Example 341, 1-{4-chloro-3-[(1S,2S)-6-chloro-4-fluoro-2-((R)-3-hydroxypyrrolidin-1-yl)indan-1-yloxy]phenyl}pyrrolidin-2-one], the IC50 under setting [1] is under 1000 nM.

As for `O=[N+]([O-])c1ccc(O[C@@H]2c3ccccc3C[C@@H]2N2CCOCC2)c(Cl)c1` (racemic) [Example 478, 4-[(1R,2S)-1-(2-chloro-4-nitrophenoxy)indan-2-yl]morpholine], the inhibition at 10 µM under setting [1] was 20 to 50%.
